# From patent US9889135B2, “Companion diagnostic for CDK4 inhibitors” (Memorial Sloan-Kettering Cancer Center, priority 2013, dated 2018)
# Key:
# [1] = system: MDM2 in WD/DDLS tumor biopsies; assay: MDM2 in pre- and post-treatment patient biopsies by immunoblot; format: in vivo, human
# Description: (§1) FIG. 7. […] GAPDH serves as a loading control.
# Antibodies against CDK4 (3F121), MDM2 (N-20 and SMP14), total RB (IF8), Cyclin A (H432), p16 (C20), p53 (DO-1 and Bp53-12), tubulin (C20) and FLAG (M2) were obtained from Santa Cruz Biotechnology, phospho-Rb 780 (#9307) from Cell Signalling, and ARF (3642) from Abeam, HAUSP (A300-033A) from Bethyl Laboratories. Treated cells were lysed with buffer composed of 50 mM Tris-HCl, pH7.4, 250 mM NaCl, 5 mM EDTA, 0.5% NP40, 2 mM PMSF, and supplemented with protease inhibitors. Eighty micrograms of protein were resolved by SDS-PAGE and transferred to PVDF membranes. Membranes were incubated overnight with antibodies (1:1000). […] Pre-treatment biopsies were collected within two weeks of the first dose and post-treatment biopsies collected after at last three weeks of treatment. […] Tumor response was assessed by reference radiologist by CT scan every six weeks for 36 weeks, and every 12 weeks thereafter.
# Extracts were prepared in 50 mM Tris-HCl, pH7.4, 150 mM NaCl, 1 mM EDTA, 1% NP40, 0.25% sodium deoxycholate and supplemented with mini-protease inhibitor cocktail (Roche). Tumor response was assessed by reference radiologist by CT scan every six weeks for 36 weeks, and every 12 weeks thereafter.
# [2] = system: MDM2 in LS0082, LS141 and LS8817 cells; assay: MDM2 turnover (cycloheximide chase), responder cells; format: cell-based, human; conditions: 1 μM for 48 hrs, then cycloheximide
# Description: The level of MDM2 was measured by immunoblot (center). Tubulin was a loading control. […] This experiment was repeated at least three times on different biologic replicates. […] Tubulin is a loading control. Data compiled from at least three independent experiments is plotted (mean and standard deviation) and a representative immunoblot is shown. […] The graphs are compiled from the data obtained in three independent biologic replicates and representative autoradiographs are shown.
# WD/DDLS = assay: phase II clinical trial (NCT01209598), tumor response by CT scan, RECIST; format: in vivo, human
# Description: as §1
# (§2) Antibodies against CDK4 (3F121), MDM2 (N-20 and SMP14), total RB (IF8), Cyclin A (H432), p16 (C20), p53 (DO-1 and Bp53-12), tubulin (C20) and FLAG (M2) were obtained from Santa Cruz Biotechnology, phospho-Rb 780 (#9307) from Cell Signalling, and ARF (3642) from Abeam, HAUSP (A300-033A) from Bethyl Laboratories. Treated cells were lysed with buffer composed of 50 mM Tris-HCl, pH7.4, 250 mM NaCl, 5 mM EDTA, 0.5% NP40, 2 mM PMSF, and supplemented with protease inhibitors. Eighty micrograms of protein were resolved by SDS-PAGE and transferred to PVDF membranes. Membranes were incubated overnight with antibodies (1:1000). […] Pre-treatment biopsies were collected within two weeks of the first dose and post-treatment biopsies collected after at last three weeks of treatment. Extracts were prepared in 50 mM Tris-HCl, pH7.4, 150 mM NaCl, 1 mM EDTA, 1% NP40, 0.25% sodium deoxycholate and supplemented with mini-protease inhibitor cocktail (Roche). Tumor response was assessed by reference radiologist by CT scan every six weeks for 36 weeks, and every 12 weeks thereafter.
# RB-positive WD/DDLS = conditions: two patients with RB-positive WD/DDLS; cited from earlier work
# RB in WD/DDLS cell lines = assay: RB phosphorylation by immunoblot; format: cell-based, human; conditions: 1 or 2 days of treatment
# Description: FIG. 1A-C. […] Mean percentage of BrdU incorporation or annexin V+/7-AAD− cells was calculated from three or more independent experiments. Error bars represent standard deviation (*p<0.05).
# Antibodies against CDK4 (3F121), MDM2 (N-20 and SMP14), total RB (IF8), Cyclin A (H432), p16 (C20), p53 (DO-1 and Bp53-12), tubulin (C20) and FLAG (M2) were obtained from Santa Cruz Biotechnology, phospho-Rb 780 (#9307) from Cell Signalling, and ARF (3642) from Abeam, HAUSP (A300-033A) from Bethyl Laboratories. Treated cells were lysed with buffer composed of 50 mM Tris-HCl, pH7.4, 250 mM NaCl, 5 mM EDTA, 0.5% NP40, 2 mM PMSF, and supplemented with protease inhibitors. Eighty micrograms of protein were resolved by SDS-PAGE and transferred to PVDF membranes. Membranes were incubated overnight with antibodies (1:1000). […] Cycles were repeated every four weeks and patients are still on trial. Pre-treatment biopsies were collected within two weeks of the first dose and post-treatment biopsies collected after at last three weeks of treatment. Extracts were prepared in 50 mM Tris-HCl, pH7.4, 150 mM NaCl, 1 mM EDTA, 1% NP40, 0.25% sodium deoxycholate and supplemented with mini-protease inhibitor cocktail (Roche). Tumor response was assessed by reference radiologist by CT scan every six weeks for 36 weeks, and every 12 weeks thereafter. […]
# LS8817 cells = assay: PD0332991 induced senescence after knock down of p53 or INK4A products; format: cell-based, human
# Description: LS8817 cells were infected with lentiviruses expressing either a scrambled (shSCR) or two independent p53 targeting (shp53a and shp53d2) shRNAs. […] The accumulation of senescence associated β-galactosidase (top), and the expression of MDM2 and p53 were determined by immunoblot (bottom). Coomassie staining of the gel indicated equivalent loading.
# [3] = system: Flag-tagged MDM2 in LS8817 cells; assay: turnover of FLAG-tagged MDM2 and C464A mutant; format: cell-based, human
# Source text: FIG. 21A-B. Turnover of MDM2 is regulated post-translationally. […] Tubulin was used as a loading control. This experiment was repeated twice with similar results. (B) LS8817 cells transduced with either a FLAG-tagged MDM2 or a FLAG-tagged C464A mutant of MDM2 were selected and the turnover of the FLAG-tagged protein measured by immunoblot after protein synthesis was blocked with cycloheximide for the indicated amount of time. A representative immunoblot is shown and the mean and standard deviation was compiled from two independent experiments.
# [4] = system: MDM2 in LS8107 and LS7785-1 cells; assay: MDM2 levels by immunoblot, non-responder cells; format: cell-based, human; conditions: non-responders LS8107 and LS7785-1; two days
# Description: (A) Immunoblot. […] Tubulin was a loading control. (B) Immunoblot.
# as §2
smiles,measurement,setting,value
CC(=O)c1c(C)c2cnc(Nc3ccc(N4CCNCC4)cn3)nc2n(C2CCCC2)c1=O [PD0332991],MDM2 levels in post- versus pre-treatment biopsies,"[1]; patients 1, 4, 7, and 8",reduced
same,MDM2 levels in post- versus pre-treatment biopsies,"[1]; patients 2, 3, and 9",unaffected
same,MDM2 stability / protein half-life,[2],markedly reduced
same,patients who performed well on the drug (RECIST),WD/DDLS; of nine patients with pre- and post-treatment biopsies,five
same,tumor size decrease,"WD/DDLS; patient 1, RECIST response, as of March 2013, 125 mg daily for 21 days, seven days of rest",greater than 60%
same,clinical response,RB-positive WD/DDLS,prolonged stable disease lasting several years
same,unphosphorylated RB,RB in WD/DDLS cell lines,accumulated
same,PD0332991 induced senescence,LS8817 cells; p16 and Arf knocked down,not affected
same,SA-β-gal positive cells,LS8817 cells; p53 deficient cells (two independent shRNAs),still accumulated
same,stability of wild type Flag-tagged MDM2,[3],still turned over
same,stability of the C464A mutant of MDM2,[3]; Flag-tagged E3 ligase-deficient mutant,did not affect
same,MDM2 reduction,[4],not
